From US4923885A, “5-amino-1-(4-naphthoylbenzyl)-1,2,3-triazole-4-carboxamides and analogs as antiproliferative agents” (Merck & Co., Inc., priority 1988, dated 1990)
In brackets after ≈: the same amount, converted by molar mass.

Legend:
[1] = system: Normal Human Epidermal Keratinocytes (NHEK); assay: Proliferation assay vs Normal Human Epidermal Keratinocytes (NHEK growth inhibition); format: cell-based; conditions: Dulbecco's modified Eagle's medium, 10% fetal calf serum, 37° C., 5% CO2, Giemsa, 650 nm, read-out: ED50 NHEK
Protocol: In these experiments, NHEK's were cultured in Dulbecco's modified Eagle's medium with 10% fetal calf serum at 37° C., 5% CO2. Each well of a 96 well plate was seeded with 2000 cells in 200 μl of each drug dilution in duplicate. A plate was stopped and fixed for each time point, stained with Giemsa and then read in a Titertek plate reader at 650 nm, and the absorbances were calibrated with known cell numbers on control plates. NHEK's were obtained from Clonetics Corporation at the secondary stage.

[2] = cited from earlier work; for effectiveness in treating psoriasis: inhibitors of purine or pyrimidine nucleotide biosynthesis; for side effects: psoriasis treatment; for clearing lesions: psoriasis, experimental use as chemotherapeutic agents
[3] = system: nucleotide biosynthesis in normal human epidermal keratinocyte cells; assay: inhibition of nucleotide biosynthesis in normal human epidermal keratinocyte cells in vitro; format: cell-based; set-up: dose or concentration left out as unconfirmed
From the text: It has been known that it is the hyperproliferation of these cells in humans which causes psoriasis.

Row | Structure (SMILES) | IC50 [1] | effectiveness in treating psoriasis [2] | side effects [2] | also measured
1 | NC(=O)c1nnn(Cc2cc(Cl)c(C(=O)c3cccc4ccccc34)c(Cl)c2)c1N [Cl, Cl, CO, α-Naphth, 5-Amino-l-[4-(l-naphthoyl)-3,5-dichlorobenzyl]-l,2,3-triazole-4-carboxamide] | 0.3 µg/mL (≈ 0.681 µM) |  |  | 
2 | O=C(O)C[C@H](NC(=O)CP(=O)(O)O)C(=O)O [N-phosphonacetyl-L-aspartate] |  | effective in treating the disease | unacceptable side effects due to toxicity | 
3 | NC(=O)c1nnn(Cc2cc(Cl)c(C(=O)c3ccc(Cl)c4ccccc34)c(Cl)c2)c1N [Compound A, 5-amino-l-(4-(4-chloronaphthoyl)-3,5-dichlorobenzyl)-1,2,3-triazole-4-carboxamide] | 0.08 µg/mL (≈ 0.169 µM) |  |  | efficacy in inhibiting nucleotide biosynthesis [3]: inhibiting nucleotide biosynthesis
4 | NC(=O)c1nnn(Cc2cc(Cl)c(C(=O)c3ccc4ccccc4c3)c(Cl)c2)c1N [Cl, Cl, CO, β-Naphth, 5-Amino-1-[4-(2-naphthoyl)-3,5-dichlorobenzyl]-1,2,3-triazole-4-carboxamide] | 1 µg/mL (≈ 2.27 µM) |  |  | 
5 | CN(Cc1cnc2nc(N)nc(N)c2n1)c1ccc(C(=O)N[C@@H](CCC(=O)O)C(=O)O)cc1 [methotrexate] |  | effective in treating the disease | unacceptable side effects due to toxicity | 
6 | COc1c(C)c2c(c(O)c1C/C=C(\C)CCC(=O)O)C(=O)OC2 [Mycophenolic acid] |  |  | unacceptable side effects | effect on psoriasis ([2]; mycophenolic acid given orally): controls psoriasis by causing remission; clearing lesions [2]: success in clearing lesions
7 | NC(=O)c1nnn(Cc2cc(Cl)c(C(=O)c3ccc(Cl)cc3)c(Cl)c2)c1N [Reference compound] | 0.5 to 1 µg/mL (≈ 1.18 to 2.35 µM) |  |  | 
8 | Nc1nc2nc[nH]c2c(=S)[nH]1 [thioguanine] |  | effective in treating the disease | unacceptable side effects due to toxicity | clearing lesions [2]: success in clearing lesions
9 | NC(=O)c1nnn(Cc2cc(Cl)c(Cc3ccc(Cl)c4ccccc34)c(Cl)c2)c1N [Cl, Cl, CH2, α-Naphth-4-Cl, 5-Amino-l-[4-[(4-chloro-l-naphthalene)methyl]-3,5dichlorobenzyl]-1,2,3-triazole-4-carboxamide] | 0.3 µg/mL (≈ 0.651 µM) |  |  | 
10 | NC(=O)c1nnn(Cc2cc(Cl)c(Oc3ccc(Cl)c4ccccc34)c(Cl)c2)c1N [Cl, Cl, O, α-Naphth-4-Cl, 5-Amino-l-[4-[(4-chloro-l-naphthalene)oxy]-3,5dichlorobenzyl]-1,2,3-triazole-4-carboxamide] | 0.3 µg/mL (≈ 0.648 µM) |  |  | 
11 | O=c1[nH]cc(F)c(=O)[nH]1 [fluorouracil] |  | effective in treating the disease | unacceptable side effects due to toxicity | 
